These results are taken from patent US20230124862A1, “BISMUTH THIOL COMPOUNDS AND COMPOSITIONS AND METHODS OF TREATING MICROBIAL CO-INFECTIONS” (Microbion Corporation, priority 2020, published 2023).

Experiment [1] concerns Candida krusei. Put plainly: Antifungal broth microdilution (Example 13). The format is cell-based.
The subject of the next experiment is Aspergillus spp. Put plainly: Antifungal broth microdilution (Example 13). The format is cell-based, A. niger, A. terreus, A. fumigatus, A. flavus.
Experiment [2] concerns C. parapsilosis ATCC 22019. Briefly: Antifungal broth microdilution (Example 13), QC organism. The format is cell-based, Candida parapsilosis. As to conditions: comparators, single value.
For experiment [3], the system named is Candida krusei. Particulars: C. krusei ATCC 6258, CLSI established QC range, cited from earlier work.
Experiment [4] relates to C. parapsilosis ATCC 22019. As to conditions: cited from earlier work.
For another experiment, the system named is E. coli ATCC 25922. Put plainly: MIC control strain. As to conditions: QC organism, Example 13.
Experiment [5] deals with S. aureus ATCC 29213. Put plainly: MIC control strain. Particulars: QC organism, Example 13.
Experiment [6] relates to S. aureus ATCC 29213. Particulars: control strain ATCC 29213; cited from earlier work.
The test system of experiment [7] is Enterobacteriaceae. Briefly: Broth microdilution MIC (Example 11). The format is cell-based, E. coli, K. pneumoniae, Enterobacter cloacae.
For experiment [8], the system named is P. aeruginosa and A. baumannii. Briefly: Broth microdilution MIC (Example 11). The format is cell-based, Pseudomonas aeruginosa, Acinetobacter baumannii.
Experiment [9] relates to S. aureus. Briefly: Broth microdilution MIC (Example 11). The format is cell-based, Staphylococcus aureus.
The test system of a further experiment is Enterococcus spp. Put plainly: Broth microdilution MIC (Example 11). The format is cell-based, E. faecalis, E. faecium. As to conditions: Lev^R Cip^R Ery^R.
For experiment [10], the system named is Enterobacteriaceae. As to conditions: E. coli MMX 102 (ATCC 25922); CLSI QC ranges shown in parenthesis; cited from earlier work.
Experiment [11] deals with P. aeruginosa and A. baumannii. As to conditions: P. aeruginosa MMX 103 (ATCC 27853); CLSI QC ranges shown in parenthesis; cited from earlier work.
The test system of experiment [12] is S. aureus. Particulars: S. aureus MMX 101 (ATCC 29213); cited from earlier work.

Converted amounts (≈) assume the structure as drawn. “And” between values parts separate entries of the source, which are not always exact repeats. Equal entries are not always repeated. Where two headings read alike, the source gives them in different places. Starred links: 1 amine or outer side, 2 acyl side, 3 side chain; linkers in the order of their positions; H or OH if unused. Positions of bridges follow the written chain, without caps; N, C: chain ends. Non-standard residues stand in square brackets, D forms with d. Residues, ends and D or L forms follow the SMILES beside them. *: point of attachment. hTyr(3S-OH,4S-OH,3'-OSO3H) = N[C@H](C(=O)O)[C@H](O)[C@@H](O)c1ccc(O)c(OS(=O)(=O)O)c1; Orn(4R-OH,5R-OH) = O=C([C@H](C[C@@H](O)[C@@H](O)N[*:3])N[*:1])[*:2]; Pro(3S-OH,4S-Me) = C[C@H]1CN[C@H](C(=O)O)[C@H]1O; X1 = CCCCCOc1ccc(-c2cc(-c3ccc(C(=O)*)cc3)no2)cc1; Gln(3R-OH) = NC(=O)C[C@@H](O)[C@H](N)C(=O)O; Hyp = O=C(O)[C@@H]1C[C@@H](O)CN1 Where only a bound is given, the exact number is not on record here.

`CC[C@H](C)C[C@H](C)CCCCCCCCC(=O)N[C@H]1C[C@@H](O)[C@@H](NCCN)NC(=O)[C@@H]2[C@@H](O)CCN2C(=O)[C@H]([C@H](O)CCN)NC(=O)[C@H]([C@H](O)[C@@H](O)c2ccc(O)cc2)NC(=O)[C@@H]2C[C@@H](O)CN2C(=O)[C@H]([C@@H](C)O)NC1=O` [Caspofungin]: the MIC 24 hr is 0.25 µg/mL (≈ 0.229 µM) in the experiment with Candida krusei [1] (C. krusei ATCC 6258, 24 hr, comparators, single value); 0.25 µg/mL (≈ 0.229 µM) in experiment [2]; more than 64 in the experiment on E. coli ATCC 25922; more than 64 with S. aureus ATCC 29213 [5]. Besides, the MIC 48 hr in the experiment on Candida krusei [1] (C. krusei ATCC 6258, 48 hr, comparators, single value) was determined as 0.25 µg/mL (≈ 0.229 µM); in experiment [2], 0.5 µg/mL (≈ 0.457 µM). Also, the “MIC 24 hr (MEC)” value against Aspergillus spp. (A. flavus ATCC 204304, 24 hr, MEC) is recorded as 0.12 (MEC); against Aspergillus spp. (A. fumigatus ATCC MYA-3626, 24 hr, MEC) it was 0.06 (MEC). The “MIC 48 hr (MEC)” value in the experiment on Aspergillus spp. (A. flavus ATCC 204304, 48 hr, MEC) is 0.06 (MEC); in the experiment on Aspergillus spp. (A. fumigatus ATCC MYA-3626, 48 hr, MEC), 0.06 (MEC). Further, the “QC Range 24 hr” value was 0.12-1 in the experiment on Candida krusei [3] and 0.25-1 in experiment [4] (C. parapsilosis ATCC 22019, CLSI established QC range, 24 hr). In addition, the “QC Range 48 hr” value is 0.25-2 in the experiment with Candida krusei [3] and 0.5-4 in experiment [4] (C. parapsilosis ATCC 22019, CLSI established QC range, 48 hr).
For `CC[C@H]1OC(=O)[C@H](C)[C@@H](O[C@H]2C[C@@](C)(OC)[C@@H](O)[C@H](C)O2)[C@H](C)[C@@H](O[C@@H]2O[C@H](C)C[C@H](N(C)C)[C@H]2O)[C@](C)(OC)C[C@@H](C)C(=O)[C@H](C)[C@@H](O)[C@]1(C)O` [Clarithromycin, reference compound], the “Expected MIC: goal (acceptable range)” value in the experiment with S. aureus ATCC 29213 [6] is 0.25 (0.12-0.5) mcg/mL.
On to `CCCCCOc1ccc(-c2cc(-c3ccc(C(=O)N[C@H]4C[C@@H](O)[C@@H](O)NC(=O)[C@@H]5[C@@H](O)[C@@H](C)CN5C(=O)[C@H]([C@H](O)CC(N)=O)NC(=O)[C@H]([C@H](O)[C@@H](O)c5ccc(O)c(OS(=O)(=O)O)c5)NC(=O)[C@@H]5C[C@@H](O)CN5C(=O)[C@H]([C@@H](C)O)NC4=O)cc3)no2)cc1` [Micafungin] (X1-[Orn(4R-OH,5R-OH)]T[Hyp][hTyr(3S-OH,4S-OH,3'-OSO3H)][Gln(3R-OH)][Pro(3S-OH,4S-Me)]; lactam 1-C), for which the MIC 24 hr in the experiment with Candida krusei [1] was 0.5 µg/mL (≈ 0.394 µM); in [2] it was 0.5 µg/mL (≈ 0.394 µM); in the experiment with E. coli ATCC 25922, more than 64; against S. aureus ATCC 29213 [5], more than 64. Moreover, the MIC 48 hr in the experiment on Candida krusei [1] is 0.5 µg/mL (≈ 0.394 µM); in experiment [2], 2 µg/mL (≈ 1.57 µM). Moreover, in the experiment with Aspergillus spp., the “MIC 24 hr (MEC)” value was 0.06 (MEC) and 0.03 (MEC). For the same compound, in the experiment with Aspergillus spp., the “MIC 48 hr (MEC)” value is on record as 0.008 (MEC). The figures for the “QC Range 24 hr” value (with Candida krusei [3]; in experiment [4]) were 0.12-0.5 and 0.5-2, respectively. Moreover, the “QC Range 48 hr” value was 0.12-0.5 in the experiment with Candida krusei [3] and 0.5-4 in experiment [4].
With Gentamicin, the MIC with Enterobacteriaceae [7] (E. cloacae MMX 5981 (ATCC BAA-2468), NDM-1, Lev^R MEM^R CAZ^R Gm^R) is more than 64 µg/mL; in the experiment on Enterobacteriaceae [7] (E. coli MMX 102 (ATCC 25922), QC) it was 1 µg/mL; in the experiment with Enterobacteriaceae [7] (E. coli MMX 5980 (ATCC BAA-2469), NDM-1, Lev^R MEM^R CAZ^R Gm^R), more than 64 µg/mL; with Enterobacteriaceae [7] (E. coli MMX 8423, ESBL, Lev^R CAZ^R Gm^R), 64 µg/mL; in the experiment on Enterobacteriaceae [7] (E. coli MMX 8424, ESBL, CAZ^R) it was 0.25 µg/mL; in the experiment with Enterobacteriaceae [7] (E. coli MMX 8425, ESBL, Lev^R CAZ^R Gm^R), more than 64 µg/mL. Further, the MIC against Enterobacteriaceae [7] (K. pneumoniae MMX 4622, KPC-2, MEM^R CAZ^R) amounted to 0.25 µg/mL; against Enterobacteriaceae [7] (K. pneumoniae MMX 4623, KPC-2, MEM^R CAZ^R Gm^R), 64 µg/mL; with Enterobacteriaceae [7] (K. pneumoniae MMX 4653, KPC-3, Lev^R MEM^R CAZ^R), 1 µg/mL; in the experiment with Enterobacteriaceae [7] (K. pneumoniae MMX 4683, KPC-2, Lev^R MEM^R CAZ^R), 1 µg/mL; in the experiment with Enterobacteriaceae [7] (K. pneumoniae MMX 4684, ESBL, MEM^R) it was 0.25 µg/mL; in the experiment on Enterobacteriaceae [7] (K. pneumoniae MMX 4685, ESBL, Lev^R MEM^R CAZ^R) it was 1 µg/mL. Besides, the MIC against Enterobacteriaceae [7] (K. pneumoniae MMX 4694, KPC-3, Lev^R MEM^R CAZ^R) is 8 µg/mL; against Enterobacteriaceae [7] (K. pneumoniae MMX 5979, NDM-1, Lev^R MEM^R CAZ^R Gm^R), more than 64 µg/mL; in [8] (A. baumannii MMX 2592, MDR, Lev^R Cip^R MEM^R CAZ^R Gm^R), more than 64 µg/mL; in experiment [8] (A. baumannii MMX 2593, MDR, Lev^R Cip^R MEM^R CAZ^R Gm^R), more than 64 µg/mL; in experiment [8] (A. baumannii MMX 3372, MDR, Cip^R MEM^1 CAZ^1), 0.5 µg/mL; in experiment [8] (A. baumannii MMX 3373, Sensitive), 0.12 µg/mL. Also, the MIC was 8 µg/mL in [8] (A. baumannii MMX 4651 (NCTC 13304), MDR: OXA-27, Lev^R Cip^R MEM^R CAZ^R Gm^1); 1 µg/mL in experiment [8] (P. aeruginosa MMX 103 (ATCC 27853), QC); 8 µg/mL in experiment [8] (P. aeruginosa MMX 1381, MDR, Lev^R Cip^R MEM^R CAZ^R); 8 µg/mL in experiment [8] (P. aeruginosa MMX 2562, MDR, Lev^R Cip^R MEM^R CAZ^R); 4 µg/mL in experiment [8] (P. aeruginosa MMX 3991, MDR, Lev^R Cip^R MEM^R CAZ^R); more than 64 µg/mL in [8] (P. aeruginosa MMX 4654, IMP-7, Lev^R Cip^R MEM^R CAZ^R). Moreover, the MIC in [8] (P. aeruginosa MMX 4697, VIM-2, Lev^R Cip^R MEM^R CAZ^R) is 4 µg/mL; in the experiment on S. aureus [9] (S. aureus MMX 101 (ATCC 29213), QC, MSSA), 0.12 µg/mL; in the experiment with S. aureus [9] (S. aureus MMX 5373, MRSA, Lev^R Cip^R CC^R Ery^R Ox^R) it was 0.25 µg/mL; in the experiment on S. aureus [9] (S. aureus MMX 6311, MRSA, Lev^R Cip^R CC^R Ery^R Ox^R), 0.25 µg/mL; in the experiment on S. aureus [9] (S. aureus MMX 9203, MRSA, Lev^R Cip^R Ery^R Ox^R), 0.12 µg/mL; against S. aureus [9] (S. aureus MMX 9204, MRSA, Lev^R Cip^R Ery^R Ox^R) it was 0.25 µg/mL. For the same compound, the MIC in the experiment on S. aureus [9] (S. aureus MMX 9205, MRSA, Lev^R Cip^R CC^R Ery^R Ox^R) was 0.25 µg/mL; in the experiment with Enterococcus spp. (E. faecalis MMX 8960, VRE) it was more than 64 µg/mL; in the experiment with Enterococcus spp. (E. faecalis MMX 8961, VRE) it was 8 µg/mL; against Enterococcus spp. (E. faecalis MMX 8962, VRE), more than 64 µg/mL; against Enterococcus spp. (E. faecium MMX 485, VRE vanA), more than 64 µg/mL; in the experiment with Enterococcus spp. (E. faecium MMX 752, VRE vanA), more than 64 µg/mL. Besides, the results for the “MIC, CLSI QC range” value (in the experiment on Enterobacteriaceae [10]; in experiment [11]) were “(0.25-1) μg/mL” and “(0.5-2) μg/mL”, respectively. In the experiment with S. aureus [12], the “CLSI QC range of MIC” value is recorded as “(0.12-1) μg/mL”.
